This is an account of results in patent publication EP3046573B1, “AMYLIN ANALOGUES” (Zealand Pharma A/S, priority 2013, dated 2015).

Data set [1] can be described thus: Assessment of chemical stability: normalized purity by RP-HPLC after incubation at 40 °C. The data set is classed as physicochemical. The following applies: normalized purity (T=0 set to 100), 0.2 mg/ml. The method, boiled down: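 Peptides at 0.2 mg/ml in water adjusted to pH 4, 7.5 or 9, held at 40 °C for 7 days. Purity by RP-HPLC (C8/ammonium formate or C18/TFA gradients), UV 220 nm, as main-peak area-%; normalized to T=0 set as 100 for each pH.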

Data set [2] can be described thus: Pharmacokinetics of test compounds in mice. It is filed as in vivo. The following applies: female, NMRI, mouse, plasma; for bioavailability: AUCinf (sc) / AUCinf (iv) x 100, 100 nmol/kg (Pramlintide 400 nmol/kg); for half-life: 100 nmol/kg (Pramlintide 400 nmol/kg). The procedure:
NMRI mice (supplier: Taconic; females with a body weight of approximately 25 g) were given either a single subcutaneous (sc) bolus or a single intravenous (iv) bolus of each peptide to be tested.
Following sc administration of test peptide (Compound 176, 1 or 18) (100 nmol/kg), blood samples were drawn 0.5, 2, 4, 8, 18, 40 and 56 hours post-dosing by eye bleeding. Following iv administration of Compound 176, 1 or 18 (100 nmol/kg), blood samples were drawn 0.08, 0.17, 0.5, 2, 8, 18 and 30 hours post-dosing by eye bleeding. The dosing vehicle used for each test peptide was a mannitol-containing histidine buffer (pH 7.0).
Pramlintide (400 nmol/kg) was also administered as a single sc bolus or as a single iv bolus to mice. Following sc administration, blood samples were drawn 5, 15, 20, 30, 60, 120, 180 and 240 minutes post-dosing by sublingual bleeding. Following iv administration, blood samples were drawn 5, 10, 15, 30, 60, 120, 180, and 240 minutes post-dosing by sublingual bleeding. The dosing vehicle used for Pramlintide was a mannitol-containing acetate buffer (pH 4.0).
Blood samples were taken from two mice at each time point, i.e. 14-16 mice were included for each compound. The mice were euthanized immediately after blood sampling by cervical dislocation. Plasma samples were analyzed after solid-phase extraction (SPE) by liquid chromatography mass spectrometry (LC-MS/MS). Mean plasma concentrations were used for calculation of the pharmacokinetic parameters using the non-compartmental approach in Phoenix WinNonlin 6.3.
Plasma terminal elimination half-life (t½) was determined as In(2)/λz, where λz is the magnitude of the slope of the log linear regression of the log concentration versus time profile during the terminal phase.
Bioavailability was determined as AUCinf (sc) / AUCinf (iv) x 100, where AUCinf is the area under the plasma concentration - time curve extrapolated to infinity (AUCinf = AUClast + Clast/λz, where Clast is the last observed plasma concentration).

Data set [3] can be described thus: Pharmacokinetic (PK) profiling in rats. The data set is classed as in vivo. The following applies: male, Sprague Dawley, rat, plasma, single sc bolus, 100 nmol/kg (18, NN96), 20 nmol/kg (72, 76), 30 nmol/kg (73, 82, 118, 162, 166, 172). Here is the method: Sprague Dawley male rats were given a single subcutaneous (sc) bolus of each peptide to be tested at doses as specified below..
Study A: Following the administration of a 100 nmol/kg dose of a test peptide of the invention (Compound 18) and a comparison pramlintide analogue NN96 (see Example 5, above), respectively, blood samples were drawn from the tail vein at 0.5, 3, 8, 15, 36, 60 and 81 hours post-dosing. 4 rats were used (2 rats per compound). The rats were euthanized immediately after the last blood sampling by overdose of O2/CO2.
Study B: 20 nmol/kg doses of Compound 72 and Compound 76, respectively, of the invention were administered. Blood samples were drawn by sublingual bleeding prior to dosing and at 2, 6, 12, 24, 48, 72 and 96 hours after dosing. 4 rats were used (2 rats per compound). The rats were euthanized immediately after the last blood sampling by overdose of O2/CO2.
Study C: 30 nmol/kg doses of Compound 73, Compound 82 and Compound 118, respectively, of the invention were administered. Blood samples were drawn from the tail vein prior to dosing and at 24, 48, 72 and 96 hours after dosing. Blood samples were taken from two rats at each time point, and only 2 blood samples were drawn from each rat, i.e. 8 rats were used for each compound. The rats were euthanized immediately after the last blood sampling by concussion and cervical dislocation.
Study D: 30 nmol/kg doses of Compound 162, Compound 166 and Compound 172 were administered. Blood samples were drawn from the tail vein prior to dosing and at 24, 48, 72, 96 and 168 hours after dosing. Blood samples were taken from two rats at each time point, and only 2 blood samples were drawn from each rat, i.e. 10 rats were used for each compound. The rats were euthanized immediately after the last blood sampling by concussion and cervical dislocation.
The dosing vehicle used for each test peptide was a mannitol-containing histidine buffer (pH 7.0). Plasma samples were analyzed after precipitation with ethanol by liquid chromatography mass spectrometry (LC-MS/MS). Mean plasma concentrations were used for calculation of the pharmacokinetic parameters using the non-compartmental approach in Phoenix WinNonlin 6.3.
Plasma terminal elimination half-life (t½) was determined as In(2)/λz, where λz is the magnitude of the slope of the log linear regression of the log concentration versus time profile during the terminal phase. Apparent clearance (CL/F) was determined as dose/AUCinf (sc), where AUCinf is the area under the plasma concentration vs. time curve extrapolated to infinity (AUCinf = AUClast + Clast/λz, where Clast is the last observed plasma concentration).

Setting [4] is: single iv bolus, read-out: t½ (hours) iv (converted).
Where [5] appears, read: single sc bolus, read-out: t½ (hours) sc (converted).

The structures appear in SMILES notation. Numbered stars: 1 amine (or outer) side, 2 acyl side, 3 side chain; on linkers, the order of the positions; unused ones are H or OH. Bridge positions count the residues as written; N and C are the ends. Square brackets hold non-standard residues; d marks the D form. Peptide text beside a SMILES is read from it. * marks the point of attachment. C20 diacid = O=C(O)CCCCCCCCCCCCCCCCCCC(=O)*; γGlu = O=C(O)[C@H](CCC(=O)[*:2])N[*:1]; NMeI = CC[C@H](C)[C@H](NC)C(=O)O; Sar = CNCC(=O)O

For the compound `CC[C@H](C)[C@@H](C(=O)N[C@@H](CC(C)C)C(=O)N[C@@H](CO)C(=O)N[C@@H](CO)C(=O)N[C@H](C(=O)N[C@@H](CC(N)=O)C(=O)N[C@H](C(=O)NCC(=O)N[C@@H](CO)C(=O)N[C@@H](CC(N)=O)C(=O)N[C@H](C(=O)N1CCC[C@H]1C(N)=O)[C@@H](C)O)C(C)C)[C@@H](C)O)N(C)C(=O)[C@H](C)NC(=O)CN(C)C(=O)[C@H](Cc1ccccc1)NC(=O)[C@H](CC(N)=O)NC(=O)[C@H](CC(N)=O)NC(=O)[C@H](CO)NC(=O)[C@H](CO)NC(=O)[C@H](Cc1c[nH]cn1)NC(=O)[C@H](Cc1c[nH]cn1)NC(=O)[C@H](CC(C)C)NC(=O)[C@H](Cc1ccccc1)NC(=O)[C@H](CCC(=O)O)NC(=O)[C@H](C)NC(=O)[C@H](CC(C)C)NC(=O)[C@H](CCCNC(=N)N)NC(=O)[C@H](CCC(N)=O)NC(=O)[C@@H](NC(=O)[C@H](C)NC(=O)[C@@H]1CSSC[C@H](NC(=O)[C@H](CCCNC(=N)N)NC(=O)CC[C@H](NC(=O)CCCCCCCCCCCCCCCCCCC(=O)O)C(=O)O)C(=O)N[C@@H](CC(N)=O)C(=O)N[C@@H]([C@@H](C)O)C(=O)N[C@@H](C)C(=O)N[C@@H]([C@@H](C)O)C(=O)N1)[C@@H](C)O` [Compound 1, [19CD]-isoGlu-RC()NTATC()ATQRLAEFLHHSSNNF-Gly(Me)-A-Ile(Me)-LSSTNVGSNTP-NH2] ({C20 diacid-γGlu}-RCNTATCATQRLAEFLHHSSNNF[Sar]A[NMeI]LSSTNVGSNTP-NH2; disulfide 2-7), the “Chem. stability; 7 days, 40°C pH 4” value in data set [1] (pH 4, 7 days) turned out to be 89 area-%. The “Chem. stability; 7 days, 40°C pH 7.5” value in data set [1] (pH 7.5, 7 days) was determined as 64 area-%. For the same compound, the “Chem. stability; 7 days, 40°C pH 9” value in data set [1] (pH 9, 7 days) is reported as 56 area-%. Besides, in data set [2], the bioavailability (commonly dose-corrected exposure relative to a reference, in per cent) stood at 77%. In addition, the figures for the half-life in data set [2] (setting [4]) and in data set [2] (setting [5]) were 32.9 h and 34.6 h, respectively.
For the compound `CC[C@H](C)[C@@H](C(=O)N[C@@H](CC(C)C)C(=O)N[C@@H](CO)C(=O)N[C@@H](CO)C(=O)N[C@H](C(=O)N[C@@H](CC(N)=O)C(=O)N[C@H](C(=O)NCC(=O)N[C@@H](CO)C(=O)N[C@@H](CC(N)=O)C(=O)N[C@H](C(=O)N1CCC[C@H]1C(N)=O)[C@@H](C)O)C(C)C)[C@@H](C)O)N(C)C(=O)[C@H](C)NC(=O)CN(C)C(=O)[C@H](Cc1ccccc1)NC(=O)[C@H](CC(N)=O)NC(=O)[C@H](CC(N)=O)NC(=O)[C@H](CO)NC(=O)[C@H](CO)NC(=O)[C@H](CCCNC(=N)N)NC(=O)[C@H](Cc1c[nH]cn1)NC(=O)[C@H](CC(C)C)NC(=O)[C@H](Cc1ccccc1)NC(=O)[C@H](CCC(=O)O)NC(=O)[C@H](C)NC(=O)[C@H](CC(C)C)NC(=O)[C@H](CCCNC(=N)N)NC(=O)[C@H](CCC(N)=O)NC(=O)[C@@H](NC(=O)[C@H](C)NC(=O)[C@@H]1CSSC[C@H](NC(=O)[C@H](CCCNC(=N)N)NC(=O)CC[C@H](NC(=O)CCCCCCCCCCCCCCCCCCC(=O)O)C(=O)O)C(=O)N[C@@H](CC(N)=O)C(=O)N[C@@H]([C@@H](C)O)C(=O)N[C@@H](C)C(=O)N[C@@H]([C@@H](C)O)C(=O)N1)[C@@H](C)O` [Compound 18, [19CD]-isoGlu-RC()NTATC()ATQRLAEFLHRSSNNF-Gly(Me)-A-Ile(Me)-LSSTNVGSNTP-NH2] ({C20 diacid-γGlu}-RCNTATCATQRLAEFLHRSSNNF[Sar]A[NMeI]LSSTNVGSNTP-NH2; disulfide 2-7), the CL/F (commonly clearance divided by bioavailability, as obtained after extravascular dosing) in data set [3] (apparent clearance) is 3.48 mL/h/kg. Besides, the half-life is 37.6 h in data set [3] (terminal elimination half-life, read-out: t½ (converted)); 20.8 h in data set [2] (setting [4]); 22.8 h in data set [2] (setting [5]). Also, in data set [2], the bioavailability stood at 79%.
`CC[C@H](C)[C@@H](C(=O)N[C@@H](CC(C)C)C(=O)N1CCC[C@H]1C(=O)N1CCC[C@H]1C(=O)N[C@H](C(=O)N[C@@H](CC(N)=O)C(=O)N[C@H](C(=O)NCC(=O)N[C@@H](CO)C(=O)N[C@@H](CC(N)=O)C(=O)N[C@H](C(=O)N1CCC[C@H]1C(N)=O)[C@@H](C)O)C(C)C)[C@@H](C)O)N(C)C(=O)CN(C)C(=O)[C@H](Cc1ccccc1)NC(=O)[C@H](CC(N)=O)NC(=O)[C@H](CC(N)=O)NC(=O)[C@H](CO)NC(=O)[C@H](CO)NC(=O)[C@H](Cc1c[nH]cn1)NC(=O)[C@H](Cc1c[nH]cn1)NC(=O)[C@H](CC(C)C)NC(=O)[C@H](Cc1ccccc1)NC(=O)[C@H](CCC(=O)O)NC(=O)[C@H](C)NC(=O)[C@H](CC(C)C)NC(=O)[C@H](CCCNC(=N)N)NC(=O)[C@H](CCC(N)=O)NC(=O)[C@@H](NC(=O)[C@H](C)NC(=O)[C@@H]1CSSC[C@H](NC(=O)[C@H](CCCNC(=N)N)NC(=O)CC[C@H](NC(=O)CCCCCCCCCCCCCCCCCCC(=O)O)C(=O)O)C(=O)N[C@@H](CC(N)=O)C(=O)N[C@@H]([C@@H](C)O)C(=O)N[C@@H](C)C(=O)N[C@@H]([C@@H](C)O)C(=O)N1)[C@@H](C)O` [Compound 176, [19CD]-isoGlu-RC()NTATC()ATQRLAEFLHHSSNNF-Gly(Me)-Ile(Me)-LPPTNVGSNTP-NH2] ({C20 diacid-γGlu}-RCNTATCATQRLAEFLHHSSNNF[Sar][NMeI]LPPTNVGSNTP-NH2; disulfide 2-7) registered a bioavailability in data set [2] of 81%. Moreover, the half-life in data set [2] (setting [4]) is 24.4 h; in data set [2] (setting [5]) it was 23.8 h.
